# Reference: patent US9580409B2, “Modulators of opioid receptors and methods of use thereof” (priority 2011, dated 2017)
# Biological target: mu-opioid receptor (Homo sapiens, UniProt P35372)
# Assay: biochemical
# Conditions: […]; class symbol combines EC50 and efficacy; read-out: GTP Activity
# mu-opioid receptor, sequence (P35372 whole entry, species assumed): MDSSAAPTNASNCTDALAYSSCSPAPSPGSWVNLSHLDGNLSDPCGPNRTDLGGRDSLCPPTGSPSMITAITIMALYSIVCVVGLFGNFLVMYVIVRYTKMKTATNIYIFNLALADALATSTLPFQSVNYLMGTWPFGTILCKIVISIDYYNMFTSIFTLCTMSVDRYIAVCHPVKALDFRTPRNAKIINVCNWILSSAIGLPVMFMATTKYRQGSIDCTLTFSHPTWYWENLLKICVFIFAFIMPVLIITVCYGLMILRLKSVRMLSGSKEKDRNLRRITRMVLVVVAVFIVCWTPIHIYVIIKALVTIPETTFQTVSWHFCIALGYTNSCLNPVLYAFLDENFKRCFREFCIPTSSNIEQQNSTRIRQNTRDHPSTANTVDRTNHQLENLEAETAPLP
row,Structure (SMILES),EC50
1,COc1cc(OC)cc(N2C(N)=C(c3nc4ccccc4[nH]3)C(=O)C2(C)CCO)c1 (centres unmarked) [compound 216],100 to 1000 nM
2,COc1cc(OC)cc(N2C(N)=C(c3nc4ccccc4[nH]3)C(=O)C23CCOCC3)c1 [compound 224],100 to 1000 nM
3,CNc1c(-c2nc3ccccc3[nH]2)c(=O)n(C2COC2)n1-c1cc(OC)cc(OC)c1 [compound 270],< 100 nM
4,CNC1=C(c2nc3ccccc3[nH]2)C(=O)[C@@](C)(CNC(=O)COC)N1c1cc(OC)cc(OC)c1 [compound 318],< 100 nM
5,COc1cc(OC)cc(N2C(N)=C(c3nc4ccccc4[nH]3)C(=O)C2CCN2CCOCC2)c1 (centres unmarked) [compound 234],100 to 1000 nM
6,CNC1=C(c2nc3ccccc3[nH]2)C(=O)[C@@]2(CCCOC2)N1c1cc(OC)cc(OC)c1 [compound 306],100 to 1000 nM
7,CNC1=C(c2nc3ccccc3[nH]2)C(=O)C(C)(CC(C)O)N1c1cc(OC)cc(OC)c1 (centres unmarked) [compound 309],< 100 nM
8,CNC1=C(c2nc3ccccc3[nH]2)C(=O)C2(CCC(O)C2)N1c1cc(OC)cc(OC)c1 (centres unmarked) [compound 311],< 100 nM
9,CNC1=C(c2nc3ccccc3[nH]2)C(=O)[C@](C)(CCO)N1c1cc(OC)cc(OC)c1 [compound 262],< 100 nM
10,COc1cc(OC)cc(N2C(N)=C(c3nc4ccccc4[nH]3)C(=O)C23CCCOC3)c1 (centres unmarked) [compound 295],100 to 1000 nM
11,COc1cc(OC)cc(N2C(N)=C(c3nc4ccccc4[nH]3)C(=O)[C@@]2(C)CCNC(C)=O)c1 [compound 302],100 to 1000 nM
12,COc1cc(OC)cc(N2C(N)=C(c3nc4ccccc4[nH]3)C(=O)C2CCN(C)C)c1 (centres unmarked) [compound 222],1000 to 10000 nM
13,COc1cc(OC)cc(N2C(N)=C(c3nc4ccccc4[nH]3)C(=O)[C@]23C[C@H](O)C3)c1 [compound 258],100 to 1000 nM
14,CNC1=C(c2nc3ccccc3[nH]2)C(=O)C(CCN)N1c1cc(OC)cc(OC)c1 (centres unmarked) [compound 253],100 to 1000 nM
15,COc1cc(OC)cc(N2C(N)=C(c3nc4ccccc4[nH]3)C(=O)C2CCN(C)C(C)=O)c1 (centres unmarked) [compound 256],100 to 1000 nM
16,COc1cc(OC)cc(N2C(N)=C(c3nc4ccccc4[nH]3)C(=O)C2CCN)c1 (centres unmarked) [compound 238],1000 to 10000 nM
17,CNC1=C(c2nc3ccccc3[nH]2)C(=O)C2(CCOCC2)N1c1cc(OC)cc(OC)c1 [compound 226],100 to 1000 nM
18,COc1cc(OC)cc(N2C(N)=C(c3nc4ccccc4[nH]3)C(=O)C23CCCN(C(C)=O)C3)c1 (centres unmarked) [compound 294],1000 to 10000 nM
19,COc1cc(OC)cc(N2C(N)=C(c3nc4ccccc4[nH]3)C(=O)[C@]23C[C@@H](O)C3)c1 [compound 206],100 to 1000 nM
20,COc1cc(OC)cc(N2C(N)=C(c3nc4ccccc4[nH]3)C(=O)[C@]2(C)CCNC(C)=O)c1 [compound 301],100 to 1000 nM
21,CNC1=C(c2nc3ccccc3[nH]2)C(=O)[C@](C)(CCOC)N1c1cc(OC)cc(OC)c1 [compound 299],100 to 1000 nM
22,CNC(=O)CC1C(=O)C(c2nc3ccccc3[nH]2)=C(N)N1c1cc(OC)cc(OC)c1 (centres unmarked) [compound 246],1000 to 10000 nM
23,COc1cc(OC)cc(N2C(N)=C(c3nc4ccccc4[nH]3)C(=O)C23CN(S(C)(=O)=O)C3)c1 [compound 251],100 to 1000 nM
24,CNc1c(-c2nc3ccccc3[nH]2)c(=O)n(C2CCC2)n1-c1cc(OC)cc(OC)c1 [compound 269],100 to 1000 nM
25,CNC1=C(c2nc3ccccc3[nH]2)C(=O)[C@@](C)(CCO)N1c1cc(OC)cc(OC)c1 [compound 261],100 to 1000 nM

# Same assay, conditions: class symbols; read-out: GTP Activity
row,Structure (SMILES),EC50
1,CN(C)c1cccc(N2C(N)=C(c3nc4ccccc4[nH]3)C(=O)C2(C)C)c1 [compound 164],1000 to 10000 nM
2,CC[C@@H]1C(=O)C(c2nc3ccccc3[nH]2)=C(NC)N1c1cc(OC)cc(OC)c1 [compound 184],100 to 1000 nM
3,CC[C@]1(C)C(=O)C(c2nc3ccccc3[nH]2)=C(N)N1c1cc(OC)cc(OC)c1 [compound 84],100 to 1000 nM
4,COC(=O)C1C(=O)C(c2nc3ccccc3[nH]2)=C(N)N1c1cc(OC)cc(OC)c1 (centres unmarked) [compound 134],1000 to 10000 nM
5,Cc1ccc(C)c(N2CC(=O)C(c3nc4cc(C)ccc4[nH]3)=C2N)c1 [compound 15],1000 to 10000 nM
6,COc1cc(OC)cc(N2C(Nc3ccccc3)=C(c3nc4ccccc4[nH]3)C(=O)C2(C)C)c1 [compound 126],1000 to 10000 nM
7,CNC1=C(c2nc3ccccc3[nH]2)C(=O)C(C)(OC)N1c1cc(OC)cc(OC)c1 (centres unmarked) [compound 120],100 to 1000 nM
8,CNC1=C(c2nc3ccccc3[nH]2)C(=O)C(C)(O)N1c1cc(OC)cc(OC)c1 (centres unmarked) [compound 114],100 to 1000 nM
9,COc1cc(OC)cc(N2C(N)=C(c3nc4ccccc4[nH]3)C(=O)C23CCC3)c1 [compound 108],< 100 nM
10,COc1cc(OC)cc(-n2c(NO)c(-c3nc4ccccc4[nH]3)c(=O)n2C)c1 [compound 143],1000 to 10000 nM
11,CNC1=C(c2nc3ccccc3[nH]2)C(=O)C2(CNC2)N1c1cc(OC)cc(OC)c1 [compound 192],100 to 1000 nM
12,COc1cc(OC)cc(N2C(N)=C(c3nc4ccccc4[nH]3)C(=O)C2O)c1 (centres unmarked) [compound 57],100 to 1000 nM
13,COc1ccc(OC)c(N2CC(=O)C(c3nc4c(C)cccc4[nH]3)=C2N)c1 [compound 16],1000 to 10000 nM
14,CCC1(O)C(=O)C(c2nc3ccccc3[nH]2)=C(NC)N1c1cc(OC)cc(OC)c1 (centres unmarked) [compound 115],100 to 1000 nM
15,COc1cc(OC)cc(-n2c(N)c(-c3nc4ccccc4[nH]3)c(=O)n2C)c1 [compound 86],100 to 1000 nM
16,COc1cc(OC)cc(N2CC(=O)C(c3nc4cc(OC)ccc4[nH]3)=C2N)c1 [compound 7],1000 to 10000 nM

row,Structure (SMILES),EC50
1,[2H]C([2H])([2H])Oc1cc(OC([2H])([2H])[2H])cc(N2C(N)=C(c3nc4ccccc4[nH]3)C(=O)C2(C)C)c1 [compound 135],100 to 1000 nM
2,CNC1=C(c2nc3ccccc3[nH]2)C(=O)C(C)(C)N1c1cc(C)cc(C)c1 [compound 105],100 to 1000 nM
3,Cc1cc(C)cc(N2CC(=O)C(c3nc4c(C)cccc4[nH]3)=C2N)c1 [compound 14],1000 to 10000 nM
4,COc1cc(OC)cc(N2C(N3CCCC3)=C(c3nc4ccccc4[nH]3)C(=O)C2(C)C)c1 [compound 144],1000 to 10000 nM
5,COc1cc(OC)cc(-n2c(N)c(-c3nc4ccccc4[nH]3)c(=N)n2C)c1 [compound 110],100 to 1000 nM
6,CCC1(C)C(=O)C(c2nc3ccccc3[nH]2)=C(N)N1c1cc(OC)cc(OC)c1 (centres unmarked) [compound 53],100 to 1000 nM
7,COc1cc(OC)cc(N2C(N)=C(c3nc4ccccc4[nH]3)C(=O)C23COC3)c1 [compound 191],100 to 1000 nM
8,COc1cc(OC)cc(N2C(N)=C(c3nc4ccccc4[nH]3)C(=O)C23CN(C)C3)c1 [compound 190],1000 to 10000 nM
9,COc1cccc(N2C(N)=C(c3nc4ccccc4[nH]3)C(=O)C2(C)C)c1 [compound 163],1000 to 10000 nM
10,C=C1C(=O)C(c2nc3ccccc3[nH]2)=C(N)N1c1cc(OC)cc(OC)c1 [compound 177],100 to 1000 nM
11,COc1cc(OC)cc(N2CC(=O)C(c3nc4cscc4[nH]3)=C2N)c1 [compound 173],1000 to 10000 nM
12,CCOc1cc(OC)cc(N2C(N)=C(c3nc4ccccc4[nH]3)C(=O)C2(C)C)c1 [compound 157],100 to 1000 nM
13,CCC1(O)C(=O)C(c2nc3ccccc3[nH]2)=C(N)N1c1cc(OC)cc(OC)c1 (centres unmarked) [compound 113],100 to 1000 nM
14,COCCC1C(=O)C(c2nc3ccccc3[nH]2)=C(N)N1c1cc(OC)cc(OC)c1 (centres unmarked) [compound 69],100 to 1000 nM
15,COc1cc(OC)cc(N2C(N)=C(c3nc4ccccc4[nH]3)C(=O)C23CNC3)c1 [compound 189],1000 to 10000 nM
